Assay results taken from US7524887B2, “2-amino-1,3-propanediol compounds for the treatment of acute pain” (Sanofi-Aventis Deutschland GmbH, priority 2003, dated 2009).

Key:
[1] = system: Sprague Dawley rats (formalin model of acute pain); assay: Formalin test after interperitoneal injection of compound 1; format: in vivo, rat; settings: for Mean flinches in 5 min interval: 1 mg/kg interperitoneally in PEG 3 hours prior to formalin, n = 5 rats
Description: Animals: Male Sprague Dawley rats weighing 300-350 g were purchased from Charles River Wiga GmbH (Sulzfeld, Germany). The animals had free access to food and water prior to the experiments. They were maintained in climate- and light-controlled rooms (24+0.5° C.). Each animal was used at one occasion only. In all experiments the ethics guidelines for investigations in conscious animals were obeyed and the procedures were approved by the local Ethics Committee. Formalin test: The formalin assay was performed in a dedicated room with restriction on sound level and activity. 2-amino-2-[2-(4-octylphenyl)ethyl]-1,3-propanediol hydrochloride (compound 1) was dissolved in polyethylene-glycol (PEG) at a concentration of 1 mg/ml and injected interperitoneally (1 mg/kg) 3 hours prior to the formalin tests were performed with compound 1. 50 μl of a 5% formaldehyde solution was injected subcutaneously (s.c.) into the dorsal surface of one hind paw. Rats were placed into a plexiglas chamber surrounded by mirrors to allow an unobstructed view of the paws. Flinches were counted in one-minute intervals up to 60 min starting right after formalin injection. Flinches of 5 min intervals were summarized as mean flinches per minute +SEM. Statistical analysis was performed using the student's t-test (*p<0.04).

[2] = system: Sprague Dawley rats (formalin model of acute pain); assay: Formalin test after intrathecal application of S1P; format: in vivo, rat; settings: for Mean flinches in 5 min interval: 20 μl of 10 μM S1P intrathecal 15 min prior to formalin, mean of six animals
Description: The analgesic effect of sphingosine-1-phosphate (S1P) was determined by intrathecal application to the spinal cord by:
Wild type Sprague Dawley rats were purchased from Charles River Wiga GmbH (Sulzfeld, Germany). The animals had free access to food and water prior to the experiments. They were maintained in climate- and light-controlled rooms (24+0.5° C.). Each animal was used at one occasion only. In all experiments the ethics guidelines for investigations in conscious animals were obeyed, and the procedures were approved by the local Ethics Committee.
Rats were anesthetized with ketamine (60 mg/kg i.p.) and midazolam (0.5 to 1 mg/kg i.p.). The skin was incised above the vertebral column from vertebrae Th13 up to L3. Muscle tissue around L2-3 was cleared away. The processus spinosus of L3 was removed and a laminectomy was done at L2. Polyethylene catheters (ID 0.28 mm, OD 0.61 mm) were then inserted into the peridural space so that the tip of the catheter reached Th9-10. The catheter was fixed with cyanacrylate glue and was externalized in the neck region and the skin was sutured.
Three days after surgery rats were placed into a “freely moving system” (CMA, Stockholm, Sweden) 20 μl of 10 μM S1P, purchased from Tocris (Ellisville, Mo.), were infused through the catheter.
Within 15 min after stopping the infusion the formalin test was performed. 50 μL of a 5% formaldehyde solution were injected subcutaneously (s. c.) into the dorsal surface of one hind paw. Flinches were counted in one-minute intervals up to 60 min starting right after formalin injection. Flinches of 5 min intervals were summarized as mean flinches per minute. To compare the nociceptive behavior between groups the sum of flinches during the one-hour observation period were submitted to the Students t-test.
S1P was dissolved in DMSO to a final concentration of 2.5 mM and then diluted 1:250 in PBS. 20 μl of 10 μM S1P or 20 μl 0.1 M phosphate buffered saline, pH 7.2 (PBS,) in DMSO were given to adult rats by intrathecal application 15 minutes prior to the formalin injection. Then, flinches were counted in 5 minutes intervals over a period of 60 minutes.

SMILES: CCCCCCCCc1ccc(CCC(N)(CO)CO)cc1.Cl [Compound 1, 2-amino-2-[2-(4-octylphenyl)ethyl]-1,3-propanediol hydrochloride]
- Number of nociceptive responses for phase 2A compared to the control animals ([1]; phase 2A = 20 to 35 minutes after formalin injection, 1 mg/kg interperitoneally, student's t-test): significant decrease
- Mean flinches in 5 min interval ([1]; time 5 min after formalin): 85.4
- Mean flinches in 5 min interval ([1]; time 10 min after formalin): 41.2
- Mean flinches in 5 min interval ([1]; time 15 min after formalin): 33.6
- Mean flinches in 5 min interval ([1]; time 20 min after formalin): 29.6
- Mean flinches in 5 min interval ([1]; time 25 min after formalin): 31.6
- Mean flinches in 5 min interval ([1]; time 30 min after formalin): 51.4
- Mean flinches in 5 min interval ([1]; time 35 min after formalin): 49.2
- Mean flinches in 5 min interval ([1]; time 40 min after formalin): 48.0
- Mean flinches in 5 min interval ([1]; time 45 min after formalin): 48.6
- Mean flinches in 5 min interval ([1]; time 50 min after formalin): 39.8
- Mean flinches in 5 min interval ([1]; time 55 min after formalin): 42.6
- Mean flinches in 5 min interval ([1]; time 60 min after formalin): 42.2

SMILES: CCCCCCCCCCCCC/C=C/[C@@H](O)[C@@H](N)COP(=O)(O)O [Compound S1P, sphingosine-1-phosphate]
- Number of nociceptive responses for phase 2A compared to PBS/DMSO-treated animals ([2]; phase 2A = 20 to 35 minutes after formalin injection, 20 μl of 10 μM S1P intrathecal): significant decrease
- Mean flinches in 5 min interval ([2]; time 5 min after formalin): 60.9
- Mean flinches in 5 min interval ([2]; time 10 min after formalin): 24.6
- Mean flinches in 5 min interval ([2]; time 15 min after formalin): 12.7
- Mean flinches in 5 min interval ([2]; time 20 min after formalin): 17.1
- Mean flinches in 5 min interval ([2]; time 25 min after formalin): 19.6
- Mean flinches in 5 min interval ([2]; time 30 min after formalin): 24.7
- Mean flinches in 5 min interval ([2]; time 35 min after formalin): 31.4
- Mean flinches in 5 min interval ([2]; time 40 min after formalin): 41.9
- Mean flinches in 5 min interval ([2]; time 45 min after formalin): 49.3
- Mean flinches in 5 min interval ([2]; time 50 min after formalin): 41.3
- Mean flinches in 5 min interval ([2]; time 55 min after formalin): 49.0
- Mean flinches in 5 min interval ([2]; time 60 min after formalin): 38.0
